Results on 13 compounds are retold here after patent publication US8088936B2, “Leukotriene B4 inhibitors” (Hoffman-La Roche Inc., priority 2009, dated 2012).

The structures appear in SMILES notation. pIC50: −log10 of the molar value.

The assay concerns Human leukemia HL-60 cells endogenously expressing BLT1 and BLT2 receptors. Put plainly: Ca2+ flux assay for LTB4 antagonist assay (HL-60 FLIPR). The assay is classed as cell-based. Conditions: retinoic acid induced HL-60 cells, inhibition of LTB4-induced Ca2+ flux, 30 min preincubation; read-out: LTB4 antagonism (HL-60 FLIPR).
With `CN(C)Cc1cc(OCCCCCCc2cccc(OCCCC(=O)O)c2CCC(=O)O)cc(-c2ccc(Cl)cc2)c1` [Example 34, 4-{2-(2-Carboxy-ethyl)-3-[6-(4′-chloro-5-dimethylaminomethyl-biphenyl-3-yloxy)-hexyl]-phenoxy}-butyric acid], the pIC50 is 9.62.
`COCc1cc(OCCCCCCc2cccc(OCCCC(=O)O)c2CCC(=O)O)cc(-c2cccc(Cl)c2)c1` [Example 18, 4-{2-(2-Carboxy-ethyl)-3-[6-(3′-chloro-5-methoxymethyl-biphenyl-3-yloxy)-hexyl]-phenoxy}-butyric acid]: the pIC50 is 7.87.
Regarding `CC(=O)c1cc(OCCCCCCc2cccc(OCCCC(=O)O)c2CCC(=O)O)cc(-c2ccccc2)c1` [Example 66, 4-[3-[6-(5-Acetyl-biphenyl-3-yloxy)-hexyl]-2-(2-carboxy-ethyl)-phenoxy]-butyric acid], the pIC50 was 8.48.
In the case of `O=C(O)CCCOc1cccc(CCCCCCOc2cc(OCc3ccccc3)cc(-c3ccsc3)c2)c1CCC(=O)O` [Example 61, 4-[3-[6-(3-Benzyloxy-5-thiophen-3-yl-phenoxy)-hexyl]-2-(2-carboxy-ethyl)-phenoxy]-butyric acid] it was 7.11.
In the case of `CN(C)Cc1cc(OCCCCCCc2cccc(OCCCC(=O)O)c2CCC(=O)O)cc(-c2ccc(C(F)(F)F)cc2)c1` [Example 37, 4-{2-(2-Carboxy-ethyl)-3-[6-(5-dimethylaminomethyl-4′-trifluoromethyl-biphenyl-3-yloxy)-hexyl]phenoxy}-butyric acid] it was 9.43.
For `CCOc1cc(OCCCCCCc2cccc(OCCCC(=O)O)c2CCC(=O)O)cc(-c2ccc(F)c(F)c2)c1` [Example 50, 4-[2-(2-Carboxy-ethyl)-3-[6-(3′,4′-difluoro-5-ethoxy-biphenyl-3-yloxy)-hexyl]-phenoxy]-butyric acid], the pIC50 was 8.08.
With `COCc1cc(OCCCCCCc2cccc(OCCCC(=O)O)c2CCC(=O)O)cc(-c2cncnc2)c1` [Example 22, 4-[2-(2-Carboxy-ethyl)-3-[6-(3-methoxymethyl-5-pyrimidin-5-yl-phenoxy)-hexyl]-phenoxy]-butyric acid], the pIC50 is 6.47.
In the case of `CN(C)Cc1cc(OCCCCCCc2cccc(OCCCC(=O)O)c2CCC(=O)O)cc(-c2ccccc2)c1` [Example 32, 4-{2-(2-Carboxy-ethyl)-3-[6-(5-dimethylaminomethyl-biphenyl-3-yloxy)-hexyl]-phenoxy}-butyric acid] it was 10.00; in that of `CCOCc1cc(OCCCCCCc2cccc(OCCCC(=O)O)c2CCC(=O)O)cc(-c2ccc3c(c2)OCO3)c1` [Example 25, 4-[3-[6-(3-Benzo[1,3]dioxol-5-yl-5-ethoxymethyl-phenoxy)-hexyl]-2-(2-carboxy-ethyl)-phenoxy]-butyric acid], 8.97.
In the case of `COCc1cc(OCCCCCCc2cccc(OCCCC(=O)O)c2CCC(=O)O)cc(-c2ccc3c(c2)OCO3)c1` [Example 8, 4-[3-[6-(3-Benzo[1,3]dioxol-5-yl-5-methoxymethyl-phenoxy)-hexyl]-2-(2-carboxy-ethyl)-phenoxy]-butyric acid] it was 9.85.
For `O=C(O)CCCOc1cccc(CCCCCCOc2cc(CO)cc(-c3ccc4c(c3)OCCO4)c2)c1CCC(=O)O` [Example 6, 4-(2-(2-Carboxy-ethyl)-3-{6-[3-(2,3-dihydro-benzo[1,4]dioxin-6-yl)-5-hydroxymethylphenoxy]-hexyl}-phenoxy)-butyric acid], the pIC50 is 8.13.
In the case of `CN(C)Cc1cc(OCCCCCCc2cccc(OCCCC(=O)O)c2CCC(=O)O)cc(-c2cccc(S(C)(=O)=O)c2)c1` [Example 39, 4-{2-(2-Carboxy-ethyl)-3-[6-(5-dimethylaminomethyl-3′-methanesulfonyl-biphenyl-3-yloxy)-hexyl]-phenoxy}-butyric acid] it was 7.15; in that of `CN(C)Cc1cc(OCCCCCCc2cccc(OCCCC(=O)O)c2CCC(=O)O)cc(-c2ccncc2)c1` [Example 40, 4-{2-(2-Carboxy-ethyl)-3-[6-(3-dimethylaminomethyl-5-pyridin-4-yl-phenoxy)-hexyl]-phenoxy}-butyric acid], 9.38.
